The values below are quoted from earlier work in patent publication US11058666B2, “Oral administration of melanin for protection against radiation” (priority 2011, dated 2021).

The conditions of the data set: after 9 Gy delivered at 1 Gy/min, published data.

On to `NCCCNCCSP(=O)(O)O` [amifostine], for which the survival is recorded as 60%.
